# According to patent publication US6403774B1, “Azoamidine compound” (Wako Pure Chemical Industries, Ltd., priority 2000, dated 2002):
# Experiment: Thermal decomposition of the azo compound (10 hour half-life temperature, decomposition rate constant)
# Assay type: physicochemical
substance,measurement,setting,value
"2,2′-azobis[2-methyl-1-(1-pyrrolidinyl)iminopropane] hydrochloride [Example 1]",10 hour half-life temperature,,66.5 °C
same,Decomposition rate constant k60° C.,60° C.,7.94e-06 s⁻¹
same,Decomposition rate constant k70° C.,70° C.,3.03e-05 s⁻¹
same,Ea,decomposition kinetics,30.39 kcal/mol
same,lnA,decomposition kinetics,34.19
